# Test results as given in ChEMBL document CHEMBL3044945, “Synthesis of 1,3,5-trisubstituted pyrazoline nucleus containing compounds and screening for antimicrobial activity” (2012).
# Tests used:
# Format in all cases: functional
# Micrococcus luteus [1] = assay: Antibacterial activity against Micrococcus luteus MTCC 1538 at 500 ug/ml after 48 hr by cup-plate method; settings: MTCC 1538, 48 h, read-out: DIZ
# Pseudomonas fluorescens [2] = assay: Antibacterial activity against Pseudomonas fluorescens MTCC 2421 at 250 ug/ml after 48 hr by cup-plate method; settings: MTCC 2421, 48 h, read-out: DIZ
# Pseudomonas aeruginosa [3] = assay: Antibacterial activity against Pseudomonas aeruginosa MTCC 424 at 500 ug/ml after 48 hr by cup-plate method; settings: MTCC 424, 48 h, read-out: DIZ
# Bacillus pumilus [4] = assay: Antibacterial activity against Bacillus pumilus MTCC 1456 at 500 ug/ml after 48 hr by cup-plate method; settings: MTCC 1456, 48 h, read-out: DIZ
# Penicillium chrysogenum [5] = assay: Antifungal activity against Penicillium chrysogenum MTCC 161 at 1000 ug/ml after 48 hr by cup-plate method; settings: MTCC 161, 48 h, read-out: DIZ
# Pseudomonas aeruginosa [6] = assay: Antibacterial activity against Pseudomonas aeruginosa MTCC 424 at 750 ug/ml after 48 hr by cup-plate method; settings: MTCC 424, 48 h, read-out: DIZ
# Aspergillus niger [7] = assay: Antifungal activity against Aspergillus niger MTCC 2546 at 100 ug/ml after 48 hr by cup-plate method; settings: MTCC 2546, 48 h, read-out: DIZ
# Pseudomonas fluorescens [8] = assay: Antibacterial activity against Pseudomonas fluorescens MTCC 2421 at 750 ug/ml after 48 hr by cup-plate method; settings: MTCC 2421, 48 h, read-out: DIZ
# Micrococcus luteus [9] = assay: Antibacterial activity against Micrococcus luteus MTCC 1538 at 1000 ug/ml after 48 hr by cup-plate method; settings: MTCC 1538, 48 h, read-out: DIZ
# Bacillus subtilis [10] = assay: Antibacterial activity against Bacillus subtilis MTCC 441 after 24 to 48 hr by tube dilution method
# Pseudomonas fluorescens [11] = assay: Antibacterial activity against Pseudomonas fluorescens MTCC 2421 at 500 ug/ml after 48 hr by cup-plate method; settings: MTCC 2421, 48 h, read-out: DIZ
# Pseudomonas fluorescens [12] = assay: Antibacterial activity against Pseudomonas fluorescens MTCC 2421 after 24 to 48 hr by tube dilution method
# Bacillus subtilis [13] = assay: Antibacterial activity against Bacillus subtilis MTCC 441 at 750 ug/ml after 48 hr by cup-plate method; settings: MTCC 441, 48 h, read-out: DIZ
# Staphylococcus aureus [14] = assay: Antibacterial activity against Staphylococcus aureus MTCC 1430 at 750 ug/ml after 48 hr by cup-plate method; settings: MTCC 1430, 48 h, read-out: DIZ
# Aspergillus niger [15] = assay: Antifungal activity against Aspergillus niger MTCC 2546 at 1250 ug/ml after 48 hr by cup-plate method; settings: MTCC 2546, 48 h, read-out: DIZ
# Pseudomonas aeruginosa [16] = assay: Antibacterial activity against Pseudomonas aeruginosa MTCC 424 at 1250 ug/ml after 48 hr by cup-plate method; settings: MTCC 424, 48 h, read-out: DIZ
# Penicillium chrysogenum [17] = assay: Antifungal activity against Penicillium chrysogenum MTCC 161 at 500 ug/ml after 48 hr by cup-plate method; settings: MTCC 161, 48 h, read-out: DIZ
# Staphylococcus aureus [18] = assay: Antibacterial activity against Staphylococcus aureus MTCC 1430 after 24 to 48 hr by tube dilution method
# Pseudomonas fluorescens [19] = assay: Antibacterial activity against Pseudomonas fluorescens MTCC 2421 at 1250 ug/ml after 48 hr by cup-plate method; settings: MTCC 2421, 48 h, read-out: DIZ
# Bacillus pumilus [20] = assay: Antibacterial activity against Bacillus pumilus MTCC 1456 at 1250 ug/ml after 48 hr by cup-plate method; settings: MTCC 1456, 48 h, read-out: DIZ
# Bacillus subtilis [21] = assay: Antibacterial activity against Bacillus subtilis MTCC 441 at 100 ug/ml after 48 hr by cup-plate method; settings: MTCC 441, 48 h, read-out: DIZ
# Bacillus subtilis [22] = assay: Antibacterial activity against Bacillus subtilis MTCC 441 at 500 ug/ml after 48 hr by cup-plate method; settings: MTCC 441, 48 h, read-out: DIZ
# Escherichia coli [23] = assay: Antibacterial activity against Escherichia coli MTCC 1573 at 500 ug/ml after 48 hr by cup-plate method; settings: MTCC 1573, 48 h, read-out: DIZ
# Aspergillus niger [24] = assay: Antifungal activity against Aspergillus niger MTCC 2546 at 1000 ug/ml after 48 hr by cup-plate method; settings: MTCC 2546, 48 h, read-out: DIZ
# Escherichia coli [25] = assay: Antibacterial activity against Escherichia coli MTCC 1573 at 100 ug/ml after 48 hr by cup-plate method; settings: MTCC 1573, 48 h, read-out: DIZ
# Bacillus subtilis [26] = assay: Antibacterial activity against Bacillus subtilis MTCC 441 at 250 ug/ml after 48 hr by cup-plate method; settings: MTCC 441, 48 h, read-out: DIZ
# Escherichia coli [27] = assay: Antibacterial activity against Escherichia coli MTCC 1573 at 1250 ug/ml after 48 hr by cup-plate method; settings: MTCC 1573, 48 h, read-out: DIZ
# Staphylococcus aureus [28] = assay: Antibacterial activity against Staphylococcus aureus MTCC 1430 at 1000 ug/ml after 48 hr by cup-plate method; settings: MTCC 1430, 48 h, read-out: DIZ
# Staphylococcus aureus [29] = assay: Antibacterial activity against Staphylococcus aureus MTCC 1430 at 500 ug/ml after 48 hr by cup-plate method; settings: MTCC 1430, 48 h, read-out: DIZ
# Staphylococcus aureus [30] = assay: Antibacterial activity against Staphylococcus aureus MTCC 1430 at 250 ug/ml after 48 hr by cup-plate method; settings: MTCC 1430, 48 h, read-out: DIZ
# Bacillus pumilus [31] = assay: Antibacterial activity against Bacillus pumilus MTCC 1456 at 250 ug/ml after 48 hr by cup-plate method; settings: MTCC 1456, 48 h, read-out: DIZ
# Pseudomonas aeruginosa [32] = assay: Antibacterial activity against Pseudomonas aeruginosa MTCC 424 after 24 to 48 hr by tube dilution method
# Micrococcus luteus [33] = assay: Antibacterial activity against Micrococcus luteus MTCC 1538 after 24 to 48 hr by tube dilution method
# Escherichia coli [34] = assay: Antibacterial activity against Escherichia coli MTCC 1573 after 24 to 48 hr by tube dilution method
# Pseudomonas aeruginosa [35] = assay: Antibacterial activity against Pseudomonas aeruginosa MTCC 424 at 250 ug/ml after 48 hr by cup-plate method; settings: MTCC 424, 48 h, read-out: DIZ
# Aspergillus niger [36] = assay: Antifungal activity against Aspergillus niger MTCC 2546 at 500 ug/ml after 48 hr by cup-plate method; settings: MTCC 2546, 48 h, read-out: DIZ
# Escherichia coli [37] = assay: Antibacterial activity against Escherichia coli MTCC 1573 at 250 ug/ml after 48 hr by cup-plate method; settings: MTCC 1573, 48 h, read-out: DIZ
# Bacillus pumilus [38] = assay: Antibacterial activity against Bacillus pumilus MTCC 1456 at 750 ug/ml after 48 hr by cup-plate method; settings: MTCC 1456, 48 h, read-out: DIZ
# Micrococcus luteus [39] = assay: Antibacterial activity against Micrococcus luteus MTCC 1538 at 1250 ug/ml after 48 hr by cup-plate method; settings: MTCC 1538, 48 h, read-out: DIZ
# Bacillus subtilis [40] = assay: Antibacterial activity against Bacillus subtilis MTCC 441 at 1000 ug/ml after 48 hr by cup-plate method; settings: MTCC 441, 48 h, read-out: DIZ
# Micrococcus luteus [41] = assay: Antibacterial activity against Micrococcus luteus MTCC 1538 at 750 ug/ml after 48 hr by cup-plate method; settings: MTCC 1538, 48 h, read-out: DIZ
# Penicillium chrysogenum [42] = assay: Antifungal activity against Penicillium chrysogenum MTCC 161 at 250 ug/ml after 48 hr by cup-plate method; settings: MTCC 161, 48 h, read-out: DIZ
# Pseudomonas aeruginosa [43] = assay: Antibacterial activity against Pseudomonas aeruginosa MTCC 424 at 1000 ug/ml after 48 hr by cup-plate method; settings: MTCC 424, 48 h, read-out: DIZ
# Pseudomonas fluorescens [44] = assay: Antibacterial activity against Pseudomonas fluorescens MTCC 2421 at 1000 ug/ml after 48 hr by cup-plate method; settings: MTCC 2421, 48 h, read-out: DIZ
structure (smiles),measurement,setting,value
O=[N+]([O-])c1ccc(C2CC(c3cccc4ccccc34)=NN2c2ccccc2)cc1 (centres undefined),zone of inhibition at 500 µg/mL,Micrococcus luteus [1],9 mm
same,zone of inhibition at 250 µg/mL,Pseudomonas fluorescens [2],9 mm
same,zone of inhibition at 500 µg/mL,Pseudomonas aeruginosa [3],12 mm
same,zone of inhibition at 500 µg/mL,Bacillus pumilus [4],10 mm
same,zone of inhibition at 1000 µg/mL,Penicillium chrysogenum [5],16 mm
same,zone of inhibition at 750 µg/mL,Pseudomonas aeruginosa [6],14 mm
same,zone of inhibition at 100 µg/mL,Aspergillus niger [7],10 mm
same,zone of inhibition at 750 µg/mL,Pseudomonas fluorescens [8],13 mm
same,zone of inhibition at 1000 µg/mL,Micrococcus luteus [9],13 mm
same,MIC,Bacillus subtilis [10],50 µg/mL
same,zone of inhibition at 500 µg/mL,Pseudomonas fluorescens [11],10 mm
same,MIC,Pseudomonas fluorescens [12],30 µg/mL
same,zone of inhibition at 750 µg/mL,Bacillus subtilis [13],17 mm
same,zone of inhibition at 750 µg/mL,Staphylococcus aureus [14],12 mm
same,zone of inhibition at 1250 µg/mL,Aspergillus niger [15],23 mm
same,zone of inhibition at 1250 µg/mL,Pseudomonas aeruginosa [16],20 mm
same,zone of inhibition at 500 µg/mL,Penicillium chrysogenum [17],13 mm
same,MIC,Staphylococcus aureus [18],150 µg/mL
same,zone of inhibition at 1250 µg/mL,Pseudomonas fluorescens [19],19 mm
same,zone of inhibition at 1250 µg/mL,Bacillus pumilus [20],18 mm
same,zone of inhibition at 100 µg/mL,Bacillus subtilis [21],12 mm
same,zone of inhibition at 500 µg/mL,Bacillus subtilis [22],15 mm
same,zone of inhibition at 500 µg/mL,Escherichia coli [23],11 mm
same,zone of inhibition at 1000 µg/mL,Aspergillus niger [24],21 mm
same,zone of inhibition at 100 µg/mL,Escherichia coli [25],9 mm
same,zone of inhibition at 250 µg/mL,Bacillus subtilis [26],14 mm
same,zone of inhibition at 1250 µg/mL,Escherichia coli [27],18 mm
same,zone of inhibition at 1000 µg/mL,Staphylococcus aureus [28],15 mm
same,zone of inhibition at 500 µg/mL,Staphylococcus aureus [29],11 mm
same,zone of inhibition at 250 µg/mL,Staphylococcus aureus [30],10 mm
same,zone of inhibition at 250 µg/mL,Bacillus pumilus [31],9 mm
same,MIC,Pseudomonas aeruginosa [32],50 µg/mL
same,MIC,Micrococcus luteus [33],200 µg/mL
same,MIC,Escherichia coli [34],50 µg/mL
same,zone of inhibition at 250 µg/mL,Pseudomonas aeruginosa [35],10 mm
same,zone of inhibition at 500 µg/mL,Aspergillus niger [36],13 mm
same,zone of inhibition at 250 µg/mL,Escherichia coli [37],10 mm
same,zone of inhibition at 750 µg/mL,Bacillus pumilus [38],14 mm
same,zone of inhibition at 1250 µg/mL,Micrococcus luteus [39],17 mm
same,zone of inhibition at 1000 µg/mL,Bacillus subtilis [40],19 mm
same,zone of inhibition at 750 µg/mL,Micrococcus luteus [41],11 mm
same,zone of inhibition at 250 µg/mL,Penicillium chrysogenum [42],12 mm
same,zone of inhibition at 1000 µg/mL,Pseudomonas aeruginosa [43],17 mm
same,zone of inhibition at 1000 µg/mL,Pseudomonas fluorescens [44],16 mm
